Test results from US20240268388A1, “AGRICULTURAL AND HORTICULTURAL FUNGICIDAL COMPOSITION” (NIPPON SODA CO., LTD., priority 2021, published 2024).
Like-named read-outs stand apart in the source and are kept apart here.

Legend:
[1] = system: soybean rust pathogen (Phakopsora pachyrhizi); assay: Soybean rust control test (leaf discs); format: in vivo
Procedure: Compounds of component (I) and component (II) were dissolved in dimethyl sulfoxide and diluted with water to the prescribed concentration to prepare a chemical agent solution. A mixture of the prescribed concentration of the chemical agent solution and sterile water was prepared on a microplate, and leaf discs cut from soybean leaves were floated on the microplate. Uredospores of soybean rust pathogen (Phakopsora pachyrhizi) were inoculated and incubated at 25° C. for 9 days. The area percentage of lesions was determined by observing uredospore-forming lesions on the leaf discs, and the control value was calculated. The control value was calculated by the following formula:
Control value (%)=100−{Area percentage of lesions in treatment plot/Area percentage of lesions in untreatment plot}×100.
The results are shown in Tables 8 to 18, along with the expected values calculated as below. Each expected values was calculated from the fungicidal efficacy of a single application of compound of component (I) and the fungicidal efficacy of a single application of compound of component (II) by using Colby's equation:
[formula] • where E represents the expected value of the control value for the composition containing component (I) and component (II), M represents the control value (%) when the component (I) is used alone, and N represents the control value (%) when the component (II) is used alone. When the measured control value for the composition containing component (I) and component (II) is greater than the expected value E, the composition containing component (I) and composition (II) should exert a synergistic effect.

[2] = system: cucumber anthracnose pathogen (Colletotrichum lagenarium); assay: Fungicidal test for cucumber anthracnose (microplate, turbidity at 405 nm); format: cell-based; details: for inhibition at 0.025 ppm / inhibition at 0.1 ppm / inhibition at 0.4 ppm: Colletotrichum orbiculare, read-out: growth inhibition rate
Procedure: The compounds were dissolved in dimethyl sulfoxide to prepare a chemical agent solution.
A mixture of the prescribed concentration of the chemical agent solution, cucumber anthracnose pathogen (Colletotrichum lagenarium) conidia, and Vogel medium was prepared on a microplate and incubated at 20° C. in the dark for 7 days.
Each expected value was calculated using Colby's equation:
[formula] • where E represents the expected value of the growth inhibition rate (%), M represents the growth inhibition rate (%) when the component (I) is used alone, and N represents the growth inhibition rate (%) when the component (II) is used alone.

[3] = Table 19, component (II) alone (component (I): None): Ipflufenoquin 0.000026, Iminoctadine trialbesilate 0.0032, Cyflufenamid 10, Cyprodinil 0.00013, Potassium bicarbonate 0.08, Thiophanate-methyl 0.08, Picarbutrazox 0.016, Fludioxonil 0.0032, Florylpicoxamid 0.0032, Metyltetraprole 0.08, Mefentrifluconazole 0.4 ppm
[4] = Table 20, component (II) alone (component (I): None): Ipflufenoquin 0.00064, Iminoctadine trialbesilate 0.0032, Cyflufenamid 10, Cyprodinil 0.00013, Potassium bicarbonate 0.08, Thiophanate-methyl 0.4, Picarbutrazox 0.016, Fludioxonil 0.0032, Florylpicoxamid 0.0032, Metyltetraprole 0.08, Mefentrifluconazole 0.4 ppm
[5] = Table 21, component (II) alone (component (I): None): Ipflufenoquin 0.00064, Iminoctadine trialbesilate 0.0032, Cyflufenamid 10, Cyprodinil 0.00013, Potassium bicarbonate 0.08, Thiophanate-methyl 0.4, Picarbutrazox 0.00064, Fludioxonil 0.0032, Florylpicoxamid 0.0032, Metyltetraprole 0.08, Mefentrifluconazole 0.4 ppm
[6] = Table 22, component (II) alone (component (I): None): Ipflufenoquin 0.00064, Iminoctadine trialbesilate 0.0032, Cyflufenamid 10, Cyprodinil 0.00013, Potassium bicarbonate 0.08, Thiophanate-methyl 0.4, Picarbutrazox 0.00064, Fludioxonil 0.0032, Florylpicoxamid 0.0032, Metyltetraprole 0.08, Mefentrifluconazole 0.4 ppm
[7] = Table 23, component (II) alone (component (I): None): Ipflufenoquin 0.00064, Iminoctadine trialbesilate 0.0032, Cyflufenamid 10, Cyprodinil 0.000026, Potassium bicarbonate 0.08, Thiophanate-methyl 0.4, Picarbutrazox 0.00064, Fludioxonil 0.00064, Florylpicoxamid 0.0032, Metyltetraprole 0.08, Mefentrifluconazole 0.4 ppm
[8] = Table 24, component (II) alone (component (I): None): Ipflufenoquin 0.00064, Iminoctadine trialbesilate 0.0032, Cyflufenamid 10, Cyprodinil 0.00013, Potassium bicarbonate 0.08, Thiophanate-methyl 0.4, Picarbutrazox 0.00064, Fludioxonil 0.00013, Florylpicoxamid 0.0032, Metyltetraprole 0.08, Mefentrifluconazole 0.4 ppm
[9] = Table 14, component (II) alone (component (I): None): Inpyrfluxam 0.00025, Chlorothalonil 0.006, Thiophanate-methyl 0.0001, Tebuconazole 0.000025, Trifloxystrobin 0.0001, Fluazinam 0.006, Prothioconazole 0.000025, Florylpicoxamid 0.0001, Metominostrobin 0.0004 ppm
[10] = Table 16, component (II) alone (component (I): None): Inpyrfluxam 0.000025, Chlorothalonil 0.006, Thiophanate-methyl 0.0001, Tebuconazole 0.000025, Trifloxystrobin 0.0001, Fluazinam 0.006, Prothioconazole 0.000025, Florylpicoxamid 0.0001, Metominostrobin 0.0004 ppm
[11] = Table 17, component (II) alone (component (I): None): Inpyrfluxam 0.000026, Chlorothalonil 0.02, Thiophanate-methyl 0.0004, Tebuconazole 0.0001, Trifloxystrobin 0.0001, Fluazinam 0.006, Prothioconazole 0.000025, Florylpicoxamid 0.0001, Metominostrobin 0.0004 ppm

Row | Structure (SMILES) | growth inhibition rate [2, 3] | growth inhibition rate [2, 4] | growth inhibition rate [2, 5] | growth inhibition rate [2, 6] | growth inhibition rate [2, 7] | growth inhibition rate [2, 8] | also measured
1 | CC(C)ON=C1CN(C(=O)Cc2ccc(-c3noc(C(F)(F)F)n3)cc2)C1 [Compound 7] |  |  |  |  |  |  | control value ([1]; component (I) alone, 0.0063 ppm): 16%; control value ([1]; component (I) alone, 0.025 ppm): 32%; control value ([1]; component (I) alone, 0.1 ppm): 64%; control value ([1]; component (I) alone, 0.4 ppm): 94%
2 | CCON=C1CCN(C(=O)Cc2ccc(-c3noc(C(F)(F)F)n3)cc2)CC1 [Compound 8] |  |  |  |  |  |  | inhibition at 0.025 ppm ([2]; Compound 8 alone): 58%; inhibition at 0.1 ppm ([2]; Compound 8 alone): 55%; inhibition at 0.4 ppm ([2]; Compound 8 alone): 85%; control value ([1]; Compound 8 alone, 0.0063 ppm): 10%; control value ([1]; Compound 8 alone, 0.025 ppm): 16%; control value ([1]; Compound 8 alone, 0.1 ppm): 32%; control value ([1]; Compound 8 alone, 0.4 ppm): 75%; control value ([1]; Compound 8 alone, 1.6 ppm): 93%
3 | CON=C1CCN(C(=O)Cc2ccc(-c3noc(C(F)(F)F)n3)cc2)CC1 [Compound 9] |  |  |  |  |  |  | inhibition at 0.025 ppm ([2]; Compound 9 alone): 42%; inhibition at 0.1 ppm ([2]; Compound 9 alone): 49%; inhibition at 0.4 ppm ([2]; Compound 9 alone): 83%; control value ([1]; Compound 9 alone, 0.0063 ppm): 13%; control value ([1]; Compound 9 alone, 0.025 ppm): 34%; control value ([1]; Compound 9 alone, 0.1 ppm): 49%; control value ([1]; Compound 9 alone, 0.4 ppm): 96%
4 | O=C(Cc1ccc(-c2noc(C(F)(F)F)n2)cc1)N1CCC(=NOCC(F)(F)F)CC1 [Compound 10] |  |  |  |  |  |  | inhibition at 0.025 ppm ([2]; Compound 10 alone): 63%; inhibition at 0.1 ppm ([2]; Compound 10 alone): 52%; inhibition at 0.4 ppm ([2]; Compound 10 alone): 96%; control value ([1]; Compound 10 alone, 0.0063 ppm): 0%; control value ([1]; Compound 10 alone, 0.025 ppm): 27%; control value ([1]; Compound 10 alone, 0.1 ppm): 42%; control value ([1]; Compound 10 alone, 0.4 ppm): 66%; control value ([1]; Compound 10 alone, 1.6 ppm): 94%
5 | CC(C)ON=C1CCN(C(=O)Cc2ccc(-c3noc(C(F)(F)F)n3)cc2)CC1 [Compound 11] |  |  |  |  |  |  | control value ([1]; Compound 11 alone, 0.0063 ppm): 6%; control value ([1]; Compound 11 alone, 0.025 ppm): 15%; control value ([1]; Compound 11 alone, 0.1 ppm): 52%; control value ([1]; Compound 11 alone, 0.4 ppm): 70%; control value ([1]; Compound 11 alone, 1.6 ppm): 84%
6 | O=C(Cc1ccc(-c2noc(C(F)(F)F)n2)cc1)N1CCC(=NO)CC1 [Compound 12] |  |  |  |  |  |  | control value ([1]; Compound 12 alone, 0.0063 ppm): 21%; control value ([1]; Compound 12 alone, 0.025 ppm): 33%; control value ([1]; Compound 12 alone, 0.1 ppm): 64%; control value ([1]; Compound 12 alone, 0.4 ppm): 92%
7 | O=C(Cc1ccccc1)N/C(=N\OCC1CC1)c1c(C(F)(F)F)ccc(F)c1F [Cyflufenamid] | 64% | 64% | 64% | 64% | 64% | 64% | 
8 | Cc1cc(C2CC2)nc(Nc2ccccc2)n1 [Cyprodinil] | 12% | 12% | 12% | 12% | 0% | 12% | 
9 | N#Cc1c[nH]cc1-c1cccc2c1OC(F)(F)O2 [Fludioxonil] | 64% | 64% | 64% | 64% | 0% | 0% | 
10 | CCCCCCCCCCCCc1ccc(S(=O)(=O)O)cc1.CCCCCCCCCCCCc1ccc(S(=O)(=O)O)cc1.CCCCCCCCCCCCc1ccc(S(=O)(=O)O)cc1.NC(N)=NCCCCCCCCNCCCCCCCCN=C(N)N [Iminoctadine trialbesilate] | 22% | 22% | 22% | 22% | 22% | 22% | 
11 | CC(O)(Cn1cncn1)c1ccc(Oc2ccc(Cl)cc2)cc1C(F)(F)F (stereo not drawn) [Mefentrifluconazole] | 64% | 64% | 64% | 64% | 64% | 64% | 
12 | CNC(=O)/C(=N/OC)c1ccccc1Oc1ccccc1 [Metominostrobin] |  |  |  |  |  |  | control value [1, 9]: 27%; control value [1, 10]: 27%; control value [1, 11]: 27%
13 | Cc1cccc(-n2nnn(C)c2=O)c1COc1ccn(-c2ccc(Cl)cc2)n1 [Metyltetraprole] | 77% | 77% | 77% | 77% | 77% | 77% | 
14 | Cn1nnnc1/C(=N\OCc1cccc(NC(=O)OC(C)(C)C)n1)c1ccccc1 [Picarbutrazox] | 87% | 87% | 0% | 0% | 0% | 0% | 
15 | O=C([O-])O.[K+] [Potassium bicarbonate] | 53% | 53% | 53% | 53% | 53% | 53% | 
16 | COC(=O)NC(=S)Nc1ccccc1NC(=S)NC(=O)OC [Thiophanate-methyl] | 0% | 0% | 0% | 0% | 0% | 0% | control value [1, 9]: 27%; control value [1, 10]: 27%; control value [1, 11]: 66%
